From article PMC4286191 (MedChemComm, 2014)

What was measured:
[1] = biological target: purified recombinant LSD1 (Homo sapiens, UniProt O60341); assay: Fluorescence-based recombinant LSD1 inhibition assay; format: biochemical; settings: residual activity at 10 μM; average of 3 determinations ± SEM; Table 2
CA46 Burkitt's lymphoma = assay: Cytotoxicity in CA46; format: cell-based
[2] = test system: MCF-10A human breast epithelial cell line; assay: Cytotoxicity in MCF-10A; format: cell-based

| Compound | % LSD1 Activity (10μM) [1] | Cytotoxicity in CA46 (CA46 Burkitt's lymphoma) | Cytotoxicity in MCF-10A [2] |
| --- | --- | --- | --- |
| N=C(NCCCNCCCCCCCNCCCNC(=N)NC(=N)NCCC(c1ccccc1)c1ccccc1)NC(=N)NCCC(c1ccccc1)c1ccccc1 [Compound 2, verlindamycin] | 33.9 ± 6.7% |  |  |
| COc1ccccc1CNc1n[nH]c(NCc2ccccc2OC)n1 [Compound 7, N^3,N[5]-bis(2-methoxybenzyl)-1H-1,2,4-triazole-3,5-diamine] |  | no significant cytotoxicity | no significant cytotoxicity |
